# pEC50, pIC50: −log10 of the molar value. Like-named read-outs stand apart in the source and are kept apart here.
# Assays:
# [1] = system: NF54-pfs16-LUC-GFP stage IV gametocytes; experiment: Plasmodium falciparum late stage gametocyte (LSG) image-based assay; assay type: cell-based; conditions: Plasmodium falciparum; for pIC50: NF54, read-out: Antiplasmodial IC50 (GAM / LSG), PBox compounds, stage IV gametocytes, single determination
# HEK293 cells = experiment: HEK293 resazurin cell cytotoxicity assay; conditions: Homo sapiens; for inhibition at 20 µM: HEK293, read-out: HEK % Inhibition 20uM/IC50 Discovery Biology; for pIC50: HEK293, read-out: HEK % Inhibition 20uM/IC50 Discovery Biology (IA)
# P. falciparum ABS = conditions: cited from earlier work; for pIC50: read-out: Pf 3D7 Pbox IC50; for pEC50: ChEMBL Data, P. falciparum, read-out: TCMDC (ref 93) EX50
# [2] = system: Plasmodium falciparum 3D7 asexual blood stage; experiment: microbe, parasite or virus in culture
# HepG2 = conditions: cited from earlier work
# [3] = system: T. b. brucei 427 bloodstream trypanosomes; experiment: T. b. brucei resazurin viability assay; assay type: cell-based, Trypanosoma brucei brucei; conditions: Trypanosoma brucei; for pIC50: read-out: T b.brucei Discovery Biology IC50
# [4] = 3D7, read-out: Antiplasmodial IC50 (ABS)
# [5] = read-out: HepG2 PBox CC50 µM, HepG2 cytotoxicity, ref PBox supporting information
# [6] = 3D7, read-out: Antiplasmodial IC50 (ABS), PBox compounds, P. falciparum 3D7
# [7] = P. falciparum 3D7, ref PBox supporting information
# [8] = 3D7, read-out: activity against P. falciparum (novel antiplasmodial actives of the tuberculosis set)
# [9] = ref Pbox supporting information
# [10] = HepG2, ref PBox supporting information
# [11] = read-out: HepG2 PBox CC50, HepG2, ref PBox supporting information
compound,measurement,setting,value
CO/C=C(/C(=O)OC)c1ccccc1Oc1cc(Oc2ccccc2C#N)ncn1 [MMV021057],pIC50,[1],7.52
same,inhibition at 20 µM,HEK293 cells,71%
same,pIC50,"P. falciparum ABS; Pf 3D7, ref Pathogen Box supporting information",7.27
same,pIC50,[2]; [4],7.40
same,IC50,"[2]; 3D7, read-out: Pf 3D7 Discovery Biology IC50 µM",0.035 µM
Cc1cc(NCCc2ccccc2)nc(NC(=N)Nc2ccc(Cl)cc2)n1 [MMV021660],inhibition at 20 µM,HEK293 cells,100%
same,CC50,HepG2; [5],6.5 µM
same,pEC50,P. falciparum ABS; TCMDC set,6.64
same,pIC50,[2]; [6],6.80
c1cncc(NCc2ccc(-c3cc4ccncc4cc3OC3CCNCC3)s2)c1 [MMV023969],inhibition at 20 µM,HEK293 cells,86%
same,CC50,HepG2; [5],8 µM
same,pEC50,P. falciparum ABS; TCMDC set,6.01
same,pIC50,[2]; [6],6.23
Cc1ccc2[nH]c(C3CCCNC3)c(-c3ccncc3)c2c1 (centres unmarked) [MMV024311],IC50,[3]; read-out: T b.brucei Discovery Biology IC50 µM,5.15 µM
same,CC50,HepG2; [5],12.7 µM
same,pEC50,P. falciparum ABS; TCMDC set,5.91
same,pIC50,[2]; [6],6.12
O=C(NCCc1ccccc1)c1cc(-c2cccnc2)cnc1NCC1CC1 [MMV026490],pIC50,HEK293 cells,< 4.70
same,pIC50,[3],5.22
same,pEC50,P. falciparum ABS,6.07
same,pIC50,P. falciparum ABS; [7],5.89
COc1cccc(-n2nnnc2S(C)(=O)=O)c1 [MMV272144],IC50,"[1]; NF54, read-out: Pf Stage IV GAMS Discovery Biology IC50 µM, stage IV gametocytes, Discovery Biology",1.92 µM
same,inhibition at 20 µM,HEK293 cells,100%
same,pIC50,[3],5.39
same,CC50,HepG2; [5],1.7 µM
CC(C)(C)c1cnc(NC(=O)c2ccccc2O)s1 [MMV495543],pIC50,[3],5.26
same,CC50,HepG2; [5],47.6 µM
Brc1cncc(-c2cc(NCCCn3ccnc3)nc(-c3ccccc3)n2)c1 [MMV661713],pIC50,[2]; [6],5.83
same,pIC50,[2]; [8],> 5.70
Cc1[nH]c2cc(F)cc(F)c2c(=O)c1-c1ccc(Oc2ccc(OC(F)(F)F)cc2)cc1 [MMV671636],pIC50,HEK293 cells,< 4.70
same,HepG2 PBox CC20 μMc,HepG2; [9],>80 µM
same,pIC50,[2]; [4],6.00
CS(=O)(=O)N1CCC(Cn2nc(Cc3cccc4ccccc34)c3c(N)ncnc32)CC1 [MMV676050],inhibition at 20 µM,HEK293 cells,77%
same,HepG2 PBox CC20,HepG2; [10],53 µM
Nc1ncc(Br)cc1-c1nc2cc(Cl)cnc2[nH]1 [MMV676358],pIC50,HEK293 cells,< 4.70
same,pIC50,P. falciparum ABS; [7],5.82
COc1cccc(-n2nnnc2S(=O)(=O)Cc2ccccc2)c1 [MMV676388],pIC50,[1],5.52
same,pIC50,[2]; [6],5.31
same,pIC50,[2]; [8],5.30 to 5.40
CC(C)c1ncc(-c2ccncc2)c([C@H]2CC[C@H](CNC(=O)c3cccnc3)CC2)n1 [MMV676442],pIC50,HEK293 cells,< 4.70
same,pEC50,P. falciparum ABS,6.11
same,pIC50,P. falciparum ABS; [7],6.08
CC(C)(C(=O)Nc1ccc(F)cc1)n1cc(-c2ccccc2F)cn1 [MMV687239],CC50,HepG2; [5],> 100 µM
NC(=O)c1cc(Br)ccc1OCCOc1ccccc1 [MMV687243],CC50,HepG2; [5],> 100 µM
Cn1c(=O)c2c(S(C)(=O)=O)snc2n(C)c1=O [MMV687251],inhibition at 20 µM,HEK293 cells,100%
same,CC50,HepG2; [5],1.1 µM
CCCCc1ccc(C(=O)Nc2nccc3ccccc23)nc1 [MMV687254],CC50,HepG2; [5],73.8 µM
CCc1nc2ccc(Cl)cn2c1C(=O)NCc1ccc(N2CCC(c3ccc(OC(F)(F)F)cc3)CC2)cc1 [MMV687696],CC50,HepG2; [5],> 100 µM
O=C(NCc1cc(Cl)cc(Cl)c1)c1c(C(F)(F)F)nc2ccccn12 [MMV687699],CC50,HepG2; [5],38.3 µM
Nc1ncnc2c1ncn2[C@@H]1O[C@H](COS(=O)(=O)NC(=O)c2ccccc2O)[C@@H](O)[C@H]1O [MMV687700],CC50,HepG2; [5],> 100 µM
O=C1O[C@@H](CO)CN1c1cc(F)c(C2=CCN(Cc3ccccc3)CC2)c(F)c1 [MMV687729],CC50,HepG2,38.8 µM
CCCCOC(=O)Nc1cc2nc(C3CCCCC3)[nH]c2cc1N1CCCC1 [MMV687730],CC50,HepG2; [5],26.8 µM
Cc1cc(OCC(=O)NCc2ccccc2)c2cc(Br)ccc2n1 [MMV687747],CC50,HepG2; [5],31 µM
CC1(C)OB(O)c2ccc(C3=NOC(c4cc(Cl)c(F)c(Cl)c4)(C(F)(F)F)C3)cc21 (centres unmarked) [MMV687775],HepG2 PBox CC20 μMc,HepG2,15.4 µM
CC1(C)Cc2c(c(N3CCOCC3)nc3snc(Br)c23)CO1 [MMV687794],pIC50,HEK293 cells,< 4.70
same,pIC50,P. falciparum ABS; [7],6.54
CN1CCN(CCCOc2ncc(Nc3ncc(-c4ccc(C(F)(F)F)c(F)c4)nc3C(N)=O)cn2)CC1 [MMV687812],inhibition at 20 µM,HEK293 cells,100%
same,CC50,HepG2; [5],3.9 µM
same,IC50,"[2]; 3D7, read-out: Pf 3D7 Discovery Biology IC50 µM, P. falciparum 3D7 asexual blood stage, Discovery Biology",1.6 µM
O=C1O[C@@H](COc2ccon2)CN1c1cc(F)c(C2=CCN(Cc3ccccc3)CC2)c(F)c1 [MMV687813],CC50,HepG2,30.4 µM
Cc1cccc(-c2nc(Nc3ccncn3)c3sccc3n2)n1 [MMV688122],pIC50,[1],6.96
same,CC50,HepG2; [5],14.3 µM
same,pIC50,[2]; [6],5.68
CCc1ccc(S(=O)(=O)Nc2cc(CN3CCN(CCC(C)C)CC3)ccc2C)cc1 [MMV688124],CC50,HepG2; [5],27.4 µM
CCCc1ccc(S(=O)(=O)Nc2ccc(CN3CCN(CC4CC4)CC3)cc2)cc1 [MMV688125],CC50,HepG2; [5],17.7 µM
c1ccc(Oc2ccc(-c3cncc(-c4ccc5[nH]ccc5c4)n3)cc2)cc1 [MMV688178],HepG2 PBox CC20 μMc,HepG2; [9],25.7 µM
CC1(COc2ccc(N3CCC(Oc4ccc(OC(F)(F)F)cc4)CC3)cc2)Cn2cc([N+](=O)[O-])nc2O1 (centres unmarked) [MMV688262],CC50,HepG2; [5],72.5 µM
COc1ccc(-c2cnc3cnc(-c4cccc(OC(C)C)c4)cn23)cc1 [MMV688270],HepG2 PBox CC20 μMc,HepG2; [9],24.3 µM
COc1ccc(-c2nnc3ccc(-c4cccc(C(C)C)c4)cn23)cc1OC [MMV688313],HepG2 PBox CC20 μMc,HepG2; [9],7.5 µM
CC(=O)NCC1CN(c2ccc(-c3ccc(CNCc4cn[nH]n4)cc3)c(F)c2)C(=O)O1 (centres unmarked) [MMV688327],CC50,HepG2; [5],> 100 µM
COC(=O)c1ccc(F)cc1NS(=O)(=O)c1cccc(-c2cnn(Cc3ccccc3)c2)c1 [MMV688350],CC50,HepG2; [11],10 µM
O=C1[C@@H](Oc2ccccc2)[C@@H](c2ccc(Cl)cc2)N1CCn1cnc2c(NCc3ccccc3)ncnc21 [MMV688352],CC50,HepG2; [11],3 µM
CC(C)(C)OC(=O)N1CCN(c2nccc(-c3ccc(-c4ccc(Cl)cc4)s3)n2)CC1 [MMV688416],CC50,HepG2; [11],> 50 µM
Cn1ccnc1CNCCS(=O)(=O)c1cccc(Nc2ccc(-c3cccc(F)c3)cn2)c1 [MMV688466],CC50,HepG2; [11],46.1 µM
CC(=O)NCC1CN(c2ccc(-c3ccc(CO)cc3)c(F)c2)C(=O)O1 (centres unmarked) [MMV688508],CC50,HepG2; [11],> 100 µM
CC(C)(C)C(=O)N(CCCCCCN1C[C@H](O)[C@@H](O)[C@H](O)[C@H]1CO)C1CCCCCC1 [MMV688543],CC50,HepG2; [11],> 50 µM
Cc1nn(C(=O)Nc2cccc(C(F)(F)F)c2)c(C)c1Sc1ncccn1 [MMV688552],HepG2 PBox CC20 μMc,HepG2; [9],30.7 µM
O=C(NCc1ccoc1)N1CCN(Cc2ccc3c(c2)OCO3)CC1 [MMV688553],CC50,HepG2; [11],> 100 µM
CNc1snc(C)c1C(=O)NCCOc1ccc(OC)cc1 [MMV688554],CC50,HepG2; [11],> 100 µM
O=C(NCc1ccco1)N1CCN(Cc2ccc(Cl)s2)CC1 [MMV688555],CC50,HepG2; [11],> 100 µM
NCC(c1cccs1)S(=O)(=O)c1ccccc1 (centres unmarked) [MMV688557],CC50,HepG2; [11],35.4 µM
c1ccc(-c2[nH]c3ccccc3c2C(c2ccccn2)N2CCCC2)cc1 (centres unmarked) [MMV688762],IC50,"[1]; NF54, read-out: Pf Stage IV GAMS Discovery Biology IC50 µM, stage IV gametocytes",3.16 µM
same,pIC50,HEK293 cells,< 4.70
same,HepG2 PBox CC20 μMc,HepG2; [9],1 µM
COc1ccc(-c2onc(C(F)(F)F)c2-c2ccc(Cl)cc2)c(O)c1 [MMV688766],pIC50,[1],5.88
same,pIC50,HEK293 cells,< 4.70
same,pIC50,[2]; [6],6.07
Cc1ccccc1C(=O)N1N=C(Nc2ccccc2)SC1(C)C [MMV688771],HepG2 PBox CC20 μMc,HepG2; [9],8 µM
OC[C@H]1O[C@@H](n2c3ccc(Cl)cc3c3c(-c4cc5ccccc5o4)ncnc32)C(O)[C@H]1O (some centres unmarked) [MMV688921],CC50,HepG2; [11],10 µM
Nc1ncnc2c1ncn2C[C@@H](O)[C@@H](O)C(=O)O [MMV689255],HepG2 PBox CC20,HepG2; [10],>80 µM
COc1cccn2c(C(=O)N3CCCCC3)c(C(F)(F)F)nc12 [MMV1110498],HepG2 PBox CC20 μMc,HepG2; [9],>80 µM
Cc1cc(OCC(=O)Nc2ccc(C(C)C)cc2)n(C)c(=O)c1C#N [MMV1198433],HepG2 PBox CC20 μMc,HepG2; [9],>80 µM

# From paper PMC5571359, “Screening the Medicines for Malaria Venture Pathogen Box across Multiple Pathogens Reclassifies Starting Points for Open-Source Drug Discovery” (Antimicrobial Agents and Chemotherapy, 2017)
